Test results published in patent publication US20240123079A1 (Seagen Inc., priority 2021, published 2024).

System: THP1-Dual™ reporter cells
Assay: THP1-Dual cell reporter assay (IRF-Lucia luciferase reporter)
Type: cell-based, human
Details: for EC50: Homo sapiens, THP1-Dual, free compounds, 24 h, Lucia reporter signal, read-out: EC50; for EC50 (ng/mL): ADCs: drug linker conjugated to a targeted mAb, 48 h
How it was run: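 THP1-Dual monocytic cells (~100,000/well) were exposed to compound for 24 h (ADCs 48 h). Secreted IRF-driven Lucia luciferase in the supernatant was quantified by QUANTI-Luc luminescence.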

Row | Compound | EC50 | EC50 (ng/mL)
1 | CCn1nc(C)cc1C(=O)Nc1nc2cc(S(N)(=O)=O)ccc2n1C/C=C/Cn1c(NC(=O)c2cc(C)nn2CC)nc2cc(C(N)=O)cc(OCCC3CN(C(=O)CCN4C(=O)C=CC4=O)C3)c21 [Compound 144, (E)-7-(2-(1-(3-(2,5-dioxo-2,5-dihydro-1H-pyrrol-1-yl)propanoyl)azetidin-3-yl)ethoxy)-2-(1-ethyl-3-methyl-1H-pyrazole-5-carboxamido)-1-(4-(2-(1-ethyl-3-methyl-1H-pyrazole-5-carboxamido)-5-sulfamoyl-1H-benzo[d]imidazol-1-yl)but-2-en-1-yl)-1H-benzo[d]imidazole-5-carboxamide] | – | >10,000 ng/mL
2 | CCn1nc(C)cc1C(=O)Nc1nc2cc(S(N)(=O)=O)ccc2n1C/C=C/Cn1c(NC(=O)c2cc(C)nn2C)nc2cc(C(N)=O)cc(OCCC3CN(C(=O)CCN4C(=O)C=CC4=O)C3)c21 [Compound 145, (E)-2-(1,3-dimethyl-1H-pyrazole-5-carboxamido)-7-(2-(1-(3-(2,5-dioxo-2,5-dihydro-1H-pyrrol-1-yl)propanoyl)azetidin-3-yl)ethoxy)-1-(4-(2-(1-ethyl-3-methyl-1H-pyrazole-5-carboxamido)-5-sulfamoyl-1H-benzo[d]imidazol-1-yl)but-2-en-1-yl)-1H-benzo[d]imidazole-5-carboxamide] | – | >10,000 ng/mL
3 | CCn1nc(C)cc1C(=O)Nc1nc2cc(S(N)(=O)=O)ccc2n1C/C=C/Cn1c(NC(=O)c2cc(C)nn2CC)nc2cc(C(N)=O)cc(OCCCOC3CN(C(=O)CCN4C(=O)C=CC4=O)C3)c21 [Compound 146, (E)-7-(3-((1-(3-(2,5-dioxo-2,5-dihydro-1H-pyrrol-1-yl)propanoyl)azetidin-3-yl)oxy)propoxy)-2-(1-ethyl-3-methyl-1H-pyrazole-5-carboxamido)-1-(4-(2-(1-ethyl-3-methyl-1H-pyrazole-5-carboxamido)-5-sulfamoyl-1H-benzo[d]imidazol-1-yl)but-2-en-1-yl)-1H-benzo[d]imidazole-5-carboxamide] | – | >10,000 ng/mL
4 | CCn1nc(C)cc1C(=O)Nc1nc2cc(S(N)(=O)=O)ccc2n1C/C=C/Cn1c(NC(=O)c2cc(C)nn2C)nc2cc(C(N)=O)cc(OCCCOC3CN(C(=O)CCN4C(=O)C=CC4=O)C3)c21 [Compound 147, (E)-2-(1,3-dimethyl-1H-pyrazole-5-carboxamido)-7-(3-((1-(3-(2,5-dioxo-2,5-dihydro-1H-pyrrol-1-yl)propanoyl)azetidin-3-yl)oxy)propoxy)-1-(4-(2-(1-ethyl-3-methyl-1H-pyrazole-5-carboxamido)-5-sulfamoyl-1H-benzo[d]imidazol-1-yl)but-2-en-1-yl)-1H-benzo[d]imidazole-5-carboxamide] | – | >10,000 ng/mL
5 | CCn1nc(C)cc1C(=O)Nc1nc2cc(S(N)(=O)=O)ccc2n1C/C=C/Cn1c(NC(=O)c2cc(C)nn2C)nc2cc(C(N)=O)cc(OCCCN(C)C(=O)CCN3C(=O)C=CC3=O)c21 [Compound 148, (E)-2-(1,3-dimethyl-1H-pyrazole-5-carboxamido)-7-(3-(3-(2,5-dioxo-2,5-dihydro-1H-pyrrol-1-yl)-N-methylpropanamido)propoxy)-1-(4-(2-(1-ethyl-3-methyl-1H-pyrazole-5-carboxamido)-5-sulfamoyl-1H-benzo[d]imidazol-1-yl)but-2-en-1-yl)-1H-benzo[d]imidazole-5-carboxamide] | – | >10,000 ng/mL
6 | CCc1nc(C)oc1C(=O)Nc1nc2cc(C(N)=O)cc(OCCC3CN(C(=O)CCN4C(=O)CC(SC[C@H](N)C(=O)O)C4=O)C3)c2n1C/C=C/Cn1c(NC(=O)c2cc(C)nn2CC)nc2cc(C(N)=O)cc(OC)c21 (stereo partly drawn) [Compound 154, S-(1-(3-(3-(2-((5-carbamoyl-1-((E)-4-(5-carbamoyl-2-(1-ethyl-3-methyl-1H-pyrazole-5-carboxamido)-7-methoxy-1H-benzo[d]imidazol-1-yl)but-2-en-1-yl)-2-(4-ethyl-2-methyloxazole-5-carboxamido)-1H-benzo[d]imidazol-7-yl)oxy)ethyl)azetidin-1-yl)-3-oxopropyl)-2,5-dioxopyrrolidin-3-yl)-L-cysteine] | > 10000 nM | –
7 | CCn1nc(C)cc1C(=O)Nc1nc2cc(C(N)=O)cc(OC)c2n1C/C=C/Cn1c(NC(=O)c2cc(C)nn2C)nc2cc(C(N)=O)cc(OCCCOC3CN(C(=O)CCN4C(=O)CC(SC[C@H](N)C(=O)O)C4=O)C3)c21 (stereo partly drawn) [Compound 155, S-(1-(3-(3-(3-((5-carbamoyl-1-((E)-4-(5-carbamoyl-2-(1-ethyl-3-methyl-1H-pyrazole-5-carboxamido)-7-methoxy-1H-benzo[d]imidazol-1-yl)but-2-en-1-yl)-2-(1,3-dimethyl-1H-pyrazole-5-carboxamido)-1H-benzo[d]imidazol-7-yl)oxy)propoxy)azetidin-1-yl)-3-oxopropyl)-2,5-dioxopyrrolidin-3-yl)-L-cysteine] | 94 nM | –

Second part, led by results:

Row | EC50 | Compound | EC50 (ng/mL)
8 | 1790 nM | CCn1nc(C)cc1C(=O)Nc1nc2cc(C(N)=O)cc(OC)c2n1C/C=C/Cn1c(NC(=O)c2cc(C)nn2C)nc2cc(C(N)=O)cc(OCCC3CNC3)c21 [Compound 140, (E)-7-(2-(azetidin-3-yl)ethoxy)-1-(4-(5-carbamoyl-2-(1-ethyl-3-methyl-1H-pyrazole-5-carboxamido)-7-methoxy-1H-benzo[d]imidazol-1-yl)but-2-en-1-yl)-2-(1,3-dimethyl-1H-pyrazole-5-carboxamido)-1H-benzo[d]imidazole-5-carboxamide] | –
9 | 159 nM | CCc1nc(C)oc1C(=O)Nc1nc2cc(C(N)=O)cc(OCCC3CNC3)c2n1C/C=C/Cn1c(NC(=O)c2cc(C)nn2CC)nc2cc(C(N)=O)cc(OC)c21 [Compound 141, (E)-N-(7-(2-(azetidin-3-yl)ethoxy)-5-carbamoyl-1-(4-(5-carbamoyl-2-(1-ethyl-3-methyl-1H-pyrazole-5-carboxamido)-7-methoxy-1H-benzo[d]imidazol-1-yl)but-2-en-1-yl)-1H-benzo[d]imidazol-2-yl)-4-ethyl-2-methyloxazole-5-carboxamide] | –
10 | 1120 nM | CCn1nc(C)cc1C(=O)Nc1nc2cc(C(N)=O)cc(OC)c2n1C/C=C/Cn1c(NC(=O)c2cc(C)nn2C)nc2cc(C(N)=O)cc(OCCCOC3CNC3)c21 [Compound 142, (E)-7-(3-(azetidin-3-yloxy)propoxy)-1-(4-(5-carbamoyl-2-(1-ethyl-3-methyl-1H-pyrazole-5-carboxamido)-7-methoxy-1H-benzo[d]imidazol-1-yl)but-2-en-1-yl)-2-(1,3-dimethyl-1H-pyrazole-5-carboxamido)-1H-benzo[d]imidazole-5-carboxamide] | –
11 | 155 nM | CCc1nc(C)oc1C(=O)Nc1nc2cc(C(N)=O)cc(OCCCOC3CNC3)c2n1C/C=C/Cn1c(NC(=O)c2cc(C)nn2CC)nc2cc(C(N)=O)cc(OC)c21 [Compound 143, (E)-N-(7-(3-(azetidin-3-yloxy)propoxy)-5-carbamoyl-1-(4-(5-carbamoyl-2-(1-ethyl-3-methyl-1H-pyrazole-5-carboxamido)-7-methoxy-1H-benzo[d]imidazol-1-yl)but-2-en-1-yl)-1H-benzo[d]imidazol-2-yl)-4-ethyl-2-methyloxazole-5-carboxamide] | –
